This is an account of results in BindingDB's records for doi:10.1016/j.chembiol.2005.12.008 (Academia Sinica, 2006).

A value given as a limit tells only on which side of the number the result lay.

This test deals with Replicase polyprotein 1ab (Severe acute respiratory syndrome coronavirus, UniProt P0C6X7). The test is described as follows: Inhibition Assay. Particulars: pH 7.5. The text has this: Inhibition assay against SARS-CoV 3CL protease, a fluorometric assay was utilized to determine the inhibition constants of the samples.

In turn, `Nc1ccc(C(=O)Cn2nnc3ccccc32)cc1` [Benzotriazole ester, 15] yielded a half-maximal inhibitory concentration (IC50) of over 50 µM. On to `CN(C)c1ccc(C(O)Cn2nnc3ccccc32)cc1` (stereo not given) [Benzotriazole ester, 20], for which the inhibition constant Ki was over 50 µM.

As for `Nc1ccc(C(O)Cn2nnc3ccccc32)cc1` (stereo not given) [Benzotriazole ester, 16], the IC50 was over 50 µM.

On to `CNc1ccc(C(O)Cn2nnc3ccccc32)cc1` (stereo not given) [Benzotriazole ester, 19], for which the Ki is over 50 µM. `O=C(Cn1nnc2ccccc21)c1ccc([N+](=O)[O-])cc1` [Benzotriazole ester, 13] returned a half-maximal inhibitory concentration (IC50) of over 50 µM.

The IC50 is the concentration that gives 50% inhibition. Higher therefore signals weaker potency. Usually Ki stands for a measure of affinity in units of concentration, obtained from inhibition or displacement. Higher therefore signals weaker binding.
